Measurements as given in patent US20240327334A1, “Covalent Inhibitors As Antiviral Agents” (Enanta Pharmaceuticals, Inc., priority 2022, published 2024).

Key:
[1] = target: SARS-CoV-2 Papain-like (PLpro) protease (Severe acute respiratory syndrome coronavirus 2, UniProt P0DTD1); test: SARS-CoV-2 Papain-like (PLpro) protease biochemical enzyme inhibition assay (ubiquitin-fluorophore substrate, Ub-R110); details: Ub-R110 substrate; run in duplicate; read-out: PLpro IC50
SARS-CoV-2 replicon = test: microbe, parasite or virus in culture; type: cell-based; details: Severe acute respiratory syndrome coronavirus 2, Huh-7

SMILES	IC50 [1]	EC50 (SARS-CoV-2 replicon)
O=C(NCC#Cc1nccs1)C(=O)NCc1ccccc1C(=O)NC1(c2cc(Cl)cc(-c3cc4ccccc4s3)c2)CC1 [Example 443]	< 100 nM	< 1000 nM
COc1ccc(C2(NC(=O)c3ccccc3CNC(=O)C(=O)NCC#N)CC2)cc1Br [Example 229]	< 100 nM	1000 to 10000 nM
CS(=O)(=O)/C=C/CNC(=O)C(=O)NCc1ccccc1C(=O)NC1(c2cccc3ccccc23)CC1 [Example 155]	< 100 nM	< 1000 nM
N#CN1CC[C@@H](CNC(=O)C(=O)NCc2ccccc2C(=O)NC2(c3cccc4ccccc34)CC2)C1 [Example 509]	< 100 nM	< 1000 nM
CS(=O)(=O)/C=C/CNC(=O)C(=O)NCc1ccccc1C(=O)NC1(c2ccc3ccccc3c2)CC1 [Example 161]	< 100 nM	< 1000 nM
C[C@@H](C#Cc1nccs1)NC(=O)C(=O)NCc1ccccc1C(=O)N[C@H](C)c1cc(F)cc(-c2cnn(C(F)F)c2)c1 [Example 496]	< 100 nM	< 1000 nM
N#C/C=C/CNC(=O)C(=O)NCc1ccccc1C(=O)NC1(c2ccc3c4c(cccc24)CC3)CC1 [Example 438]	< 100 nM	< 1000 nM
COC(=O)Cn1cc(-c2cc(C3(NC(=O)c4ccccc4CNC(=O)C(=O)NCC#N)CC3)c3ccccc3c2)nn1 [Example 426]	< 100 nM	1000 to 10000 nM
Cc1cc(C#N)ccc1C#CCNC(=O)C(=O)NCc1ccccc1C(=O)NC1(c2ccc3ccccc3c2)CC1 [Example 85]	< 100 nM	< 1000 nM
C#CCNC(=O)C(=O)NCc1ccc(C(=O)N2CC(F)(F)C2)cc1C(=O)NC1(c2ccc(F)c3ccccc23)CC1 [Example 61]	< 100 nM	< 1000 nM
C[C@@H](C#Cc1ccc(C#N)cc1Cl)NC(=O)C(=O)NCc1ccccc1C(=O)NC1(c2ccc3nn(C)cc3c2)CC1 [Example 107]	< 100 nM	< 1000 nM
CCOc1cccnc1C#CCNC(=O)C(=O)NCc1ccccc1C(=O)NC1(c2ccc3ccccc3c2)CC1 [Example 200]	< 100 nM	< 1000 nM
CC(C)n1ncnc1C#C[C@H](C)NC(=O)C(=O)NCc1ccccc1C(=O)NC1(c2cc(F)cc(-c3cnn(C4CC4)c3)c2)CC1 [Example 276]	< 100 nM	< 1000 nM
N#CCNC(=O)C(=O)NCc1ccccc1C(=O)NC1(c2cc(Cl)cc(-c3cnco3)c2)CC1 [Example 451]	< 100 nM	1000 to 10000 nM
O=C(NCC#Cc1nccs1)C(=O)NCc1ccccc1C(=O)NC1(c2cc(F)cc(-c3cnn(C4CC4)c3)c2F)CC1 [Example 313]	< 100 nM	< 1000 nM
N#CN1CC(C(=O)NCc2ccccc2C(=O)NC2(c3cccc4ccccc34)CC2)C1 [Example 114]	< 100 nM	< 1000 nM
C#CCNC(=O)C(=O)NCc1ccccc1C(=O)NC1(c2cc(Cl)cc(-c3ccccc3F)c2)CC1 [Example 444]	< 100 nM	< 1000 nM
N#CCNC(=O)C(=O)NCc1ccccc1C(=O)NC1(c2ccc(F)c(-c3cccs3)c2)CC1 [Example 219]	< 100 nM	1000 to 10000 nM
N#CCNC(=O)C(=O)NCc1ccccc1C(=O)NC1(c2cccc(-c3ccc(F)cc3)c2)CC1 [Example 543]	100 to 1000 nM	> 10000 nM
O=C(NCC#Cc1ncc(F)cc1F)C(=O)NCc1ccccc1C(=O)NC1(c2ccc3ccccc3c2)CC1 [Example 188]	< 100 nM	< 1000 nM

SMILES	IC50 [1]	EC50 (SARS-CoV-2 replicon)
O=C(NCC#Cc1nccs1)C(=O)NCc1ccccc1C(=O)NC1(c2cc(Cl)cc(-c3cncs3)c2)CC1 [Example 446]	< 100 nM	< 1000 nM
CC(C)c1cccnc1C#CCNC(=O)C(=O)NCc1ccccc1C(=O)NC1(c2ccc3ccccc3c2)CC1 [Example 404]	< 100 nM	< 1000 nM
O=C(NCC#Cc1nccs1)C(=O)NCc1ccccc1C(=O)NC1(c2cc(F)cc(-c3cnn(C4CC4)c3)c2)CC1 [Example 243]	< 100 nM	< 1000 nM
N#CCNC(=O)C(=O)NCc1ccccc1C(=O)NC1(c2cc(C(=O)NC3CC3)cc3ccccc23)CC1 [Example 117]	< 100 nM	1000 to 10000 nM
N#CCNC(=O)C(=O)NCc1ccccc1C(=O)NC1(c2cc(-c3ccc(CO)s3)cc3ccccc23)CC1 [Example 350]	< 100 nM	< 1000 nM
C[C@H](NC(=O)c1ccccc1CNC(=O)C(=O)NCC#N)c1cc(C(F)(F)F)nc2ccccc12 [Example 327]	< 100 nM	1000 to 10000 nM
O=C(NCC#Cc1nccs1)C(=O)NCc1ccccc1C(=O)NC1(c2ccc3ccccc3c2)CC1 [Example 167]	< 100 nM	< 1000 nM
C#CCNC(=O)C(=O)NCc1ccccc1C(=O)NC1(c2cccc(-c3cccs3)c2Cl)CC1 [Example 383]	< 100 nM	< 1000 nM
COc1cc(C2(NC(=O)c3ccccc3CNC(=O)C(=O)N[C@@H](C)C#Cc3ncccc3Cl)CC2)cc2cn(C3CC3)nc12 [Example 279]	< 100 nM	< 1000 nM
N#CCNC(=O)C(=O)NCc1ccccc1C(=O)NC1(c2ccc3c4c(cccc24)C(=O)N3)CC1 [Example 434]	< 100 nM	1000 to 10000 nM
N#CN1CCC[C@H]1CNC(=O)C(=O)NCc1ccccc1C(=O)NC1(c2cccc3ccccc23)CC1 [Example 504]	< 100 nM	< 1000 nM
Cn1ccc(-c2cc(C3(NC(=O)c4ccccc4CNC(=O)C(=O)NCC#N)CC3)c3ccccc3c2)n1 [Example 290]	< 100 nM	< 1000 nM
N#CCNC(=O)C(=O)NCc1ccccc1C(=O)NC1(c2cccc3c(C#N)cccc23)CC1 [Example 308]	< 100 nM	< 1000 nM
Cc1nn(C(F)F)c(C)c1-c1cc(F)cc(C2(NC(=O)c3ccccc3CNC(=O)C(=O)NCC#Cc3nccs3)CC2)c1 [Example 140]	< 100 nM	< 1000 nM
Cn1cc2cc(C3(NC(=O)c4ccccc4CNC(=O)C(=O)NCC#Cc4ncccc4OCC(F)F)CC3)ccc2n1 [Example 211]	< 100 nM	< 1000 nM
N#CCNC(=O)C(=O)NCc1ccccc1C(=O)NC1(c2ccnc3cc(Cl)ccc23)CC1 [Example 423]	< 100 nM	1000 to 10000 nM
N#CN1CC[C@H]1CNC(=O)C(=O)NCc1ccccc1C(=O)NC1(c2cccc3ccccc23)CC1 [Example 500]	< 100 nM	< 1000 nM
COC(=O)/C=C/CNC(=O)C(=O)NCc1ccccc1C(=O)N[C@H](C)c1cc(-c2cccs2)cc(C(F)(F)F)c1 [Example 461]	< 100 nM	< 1000 nM
O=C(NC/C=C/C(=O)n1cccn1)C(=O)NCc1ccccc1C(=O)NC1(c2cccc3ccccc23)CC1 [Example 567]	100 to 1000 nM	1000 to 10000 nM
N#CCNC(=O)C(=O)NCc1ccc(OCCO)cc1C(=O)NC1(c2cccc3ccccc23)CC1 [Example 320]	< 100 nM	< 1000 nM

SMILES	IC50 [1]	EC50 (SARS-CoV-2 replicon)
C[C@@H](NC(=O)c1ccccc1CNC(=O)C(=O)NCC#N)c1cc(-c2cccs2)cc(C(F)(F)F)c1 [Example 460]	< 100 nM	< 1000 nM
O=C(NCC#CC(=O)N1CCCO1)C(=O)NCc1ccccc1C(=O)NC1(c2cccc3ccccc23)CC1 [Example 526]	< 100 nM	< 1000 nM
O=C(NC/C=C/C(=O)N1CCCO1)C(=O)NCc1ccccc1C(=O)NC1(c2cccc3ccccc23)CC1 [Example 568]	100 to 1000 nM	1000 to 10000 nM
N#CCNC(=O)C(=O)NCc1ccccc1C(=O)NC1(c2cccc3c(Br)cccc23)CC1 [Example 310]	< 100 nM	< 1000 nM
C[C@@H](C#Cc1nccs1)NC(=O)C(=O)NCc1ccccc1C(=O)NC1(c2ccc3nn(CC(F)(F)F)cc3c2)CC1 [Example 323]	< 100 nM	< 1000 nM
Cn1cc2cc(C3(NC(=O)c4ccccc4CNC(=O)C(=O)NCC#Cc4ncccc4Cl)CC3)ccc2n1 [Example 269]	< 100 nM	< 1000 nM
C[C@@H](C#Cc1ncccc1OCC(F)F)NC(=O)C(=O)NCc1ccccc1C(=O)NC1(c2ccc3nn(C)cc3c2)CC1 [Example 212]	100 to 1000 nM	1000 to 10000 nM
C#CCNC(=O)C(=O)NCc1ccccc1C(=O)NC1(c2cc(Cl)cc(-c3cnn(C4CC4)c3)c2)CC1 [Example 453]	< 100 nM	< 1000 nM
O=C(NCC#Cc1nccs1)C(=O)NCc1ccccc1C(=O)NC1(c2cc(-c3cnn(C4CC4)c3)cc(C3CC3)c2)CC1 [Example 134]	< 100 nM	< 1000 nM
C#CCNC(=O)C(=O)NCc1ccccc1C(=O)NC1(c2cc(-c3cn(C4CC4)nn3)cc(C(F)(F)F)c2)CC1 [Example 59]	< 100 nM	< 1000 nM
O=C(NC/C=C/C(=O)N1CCCC1)C(=O)NCc1ccccc1C(=O)NC1(c2cccc3ccccc23)CC1 [Example 557]	< 100 nM	1000 to 10000 nM
COc1ccc(C2(NC(=O)c3ccccc3CNC(=O)C(=O)NCC#Cc3nccs3)CC2)cc1-c1cnn(C2CC2)c1 [Example 247]	< 100 nM	< 1000 nM
C#CCNC(=O)C(=O)NCc1ccccc1C(=O)NC1(c2cc(F)cc(-c3cnn(C4CC4)c3)c2)CC1 [Example 226]	< 100 nM	< 1000 nM
O=C(NCC#Cc1ccccn1)C(=O)NCc1ccccc1C(=O)NC1(c2cc(F)cc(-c3cnn(C4CC4)c3)c2)CC1 [Example 252]	< 100 nM	< 1000 nM
Cc1nn(C)cc1-c1cc(F)cc(C2(NC(=O)c3ccccc3CNC(=O)C(=O)NCC#Cc3ncccc3Cl)CC2)c1 [Example 259]	< 100 nM	< 1000 nM
Cc1nn(C)cc1-c1cc(F)cc(C2(NC(=O)c3ccccc3CNC(=O)C(=O)NCC#N)CC2)c1 [Example 233]	< 100 nM	> 10000 nM
O=C(NCC#Cc1nccs1)C(=O)NCc1ccccc1C(=O)NC1(c2cc(F)cc(C(=O)N3CCOCC3)c2)CC1 [Example 138]	< 100 nM	< 1000 nM
O=C(NCC#Cc1cccc(F)n1)C(=O)NCc1ccccc1C(=O)NC1(c2ccc3ccccc3c2)CC1 [Example 196]	< 100 nM	< 1000 nM
O=C(NCC#Cc1nccs1)C(=O)NCc1ccccc1C(=O)NC1(c2cc(F)cc(-n3cc(C4CC4)cn3)c2)CC1 [Example 489]	< 100 nM	< 1000 nM
